Laboratory results reported in US8536332B2, “Modulating signal transduction pathways with substituted pyridol [2,3-b] pyrazines” (Aeterna Zentaris GmbH, priority 2007, dated 2013).

Row | melting point | SMILES
1 | 223 to 225 °C | CCNC(=O)Nc1ccc2ncc(-c3ccc(OC)cc3C)nc2n1 [Compound 98, 1-Ethyl-3-[3-(4-methoxy-2-methyl-phenyl)-pyrido[2,3-b]pyrazin-6-yl]-urea]
2 | 275 °C | CCNC(=O)Nc1ccc2ncc(-c3cccc(Cl)c3F)nc2n1 [Compound 99, 1-[3-(3-Chloro-2-fluoro-phenyl)-pyrido[2,3-b]pyrazin-6-yl]-3-ethyl-urea]
3 | 232 to 234 °C | CCNC(=O)Nc1ccc2ncc(-c3cccc(C)c3)nc2n1 [Compound 100, 1-Ethyl-3-(3-m-tolyl-pyrido[2,3-b]pyrazin-6-yl)-urea]
4 | 249 to 253 °C | CCNC(=O)Nc1ccc2ncc(-c3cccc([N+](=O)[O-])c3)nc2n1 [Compound 101, 1-Ethyl-3-[3-(3-nitro-phenyl)-pyrido[2,3-b]pyrazin-6-yl]-urea]
5 | 220 to 222 °C | CCNC(=O)Nc1ccc2ncc(-c3ccccc3OCC)nc2n1 [Compound 102, 1-[3-(2-Ethoxy-phenyl)-pyrido[2,3-b]pyrazin-6-yl]-3-ethyl-urea]
6 | 226 to 228 °C | CCNC(=O)Nc1ccc2ncc(-c3ccccc3F)nc2n1 [Compound 103, 1-Ethyl-3-[3-(2-fluoro-phenyl)-pyrido[2,3-b]pyrazin-6-yl]-urea]
7 | 310 °C | CCNC(=O)Nc1ccc2ncc(-c3ccccc3Cl)nc2n1 [Compound 104, 1-[3-(2-Chloro-phenyl)-pyrido[2,3-b]pyrazin-6-yl]-3-ethyl-urea]
8 | 218 to 220 °C | CCNC(=O)Nc1ccc2ncc(-c3ccccc3C)nc2n1 [Compound 105, 1-Ethyl-3-(3-o-tolyl-pyrido[2,3-b]pyrazin-6-yl)-urea]
9 | 260 °C | CCNC(=O)Nc1ccc2ncc(-c3cccc(C)c3C)nc2n1 [Compound 107, 1-[3-(2,3-Dimethyl-phenyl)-pyrido[2,3-b]pyrazin-6-yl]-3-ethyl-urea]
10 | > 350 °C | CCNC(=O)Nc1ccc2ncc(-c3cccc(Cl)c3Cl)nc2n1 [Compound 108, 1-[3-(2,3-Dichloro-phenyl)-pyrido[2,3-b]pyrazin-6-yl]-3-ethyl-urea]
11 | 236 to 238 °C | CCNC(=O)Nc1ccc2ncc(-c3cc(C)cc(Br)c3OCc3ccccc3)nc2n1 [Compound 109, 1-[3-(2-Benzyloxy-3-bromo-5-methyl-phenyl)-pyrido[2,3-b]pyrazin-6-yl]-3-ethyl-urea]
12 | 228 to 230 °C | CCNC(=O)Nc1ccc2ncc(-c3cc(C)cc(Br)c3OC)nc2n1 [Compound 110, 1-[3-(3-Bromo-2-methoxy-5-methyl-phenyl)-pyrido[2,3-b]pyrazin-6-yl]-3-ethyl-urea]
13 | 262 to 264 °C | CCNC(=O)Nc1ccc2ncc(-c3cccc(Cl)c3)nc2n1 [Compound 111, 1-[3-(3-Chloro-phenyl)-pyrido[2,3-b]pyrazin-6-yl]-3-ethyl-urea]
14 | 229 to 231 °C | CCNC(=O)Nc1ccc2ncc(-c3ccc(F)cc3OCC)nc2n1 [Compound 112, 1-[3-(2-Ethoxy-4-fluoro-phenyl)-pyrido [2,3-b]pyrazin-6-yl]-3-ethyl-urea]
15 | 253 to 257 °C | CCNC(=O)Nc1ccc2ncc(-c3cccc(C#N)c3)nc2n1 [Compound 114, 1-[3-(3-Cyano-phenyl)-pyrido[2,3-b]pyrazin-6-yl]-3-ethyl-urea]
16 | 200 to 202 °C | CCNC(=O)Nc1ccc2ncc(-c3cccc(CO)c3)nc2n1 [Compound 115, 1-Ethyl-3-[3-(3-hydroxymethyl-phenyl)-pyrido[2,3-b]pyrazin-6-yl]-urea]
17 | 251 to 255 °C | CCNC(=O)Nc1ccc2ncc(-c3cccc(-c4ccccc4)c3)nc2n1 [Compound 116, 1-(3-Biphenyl-3-yl-pyrido[2,3-b]pyrazin-6-yl)-3-ethyl-urea]
18 | 221 to 224 °C | CCNC(=O)Nc1ccc2ncc(-c3cccc(SC)c3)nc2n1 [Compound 117, 1-Ethyl-3-[3-(3-methylsulfanyl-phenyl)-pyrido[2,3-b]pyrazin-6-yl]-urea]
19 | 239 to 240 °C | CCNC(=O)Nc1ccc2ncc(-c3cccc(OC(F)(F)F)c3)nc2n1 [Compound 118, 1-Ethyl-3-[3-(3-trifluoromethoxy-phenyl)-pyrido[2,3-b]pyrazin-6-yl]-urea]
20 | 222 to 223 °C | CCNC(=O)Nc1ccc2ncc(-c3cccc(C(=O)OCC)c3)nc2n1 [Compound 119, 3-[6-(3-Ethyl-ureido)-pyrido[2,3-b]pyrazin-3-yl]-benzoic acid ethyl ester]
21 | 224 to 228 °C | CCNC(=O)Nc1ccc2ncc(-c3cccc(NS(C)(=O)=O)c3)nc2n1 [Compound 120, N-{3-[6-(3-Ethyl-ureido)-pyrido[2,3-b]pyrazin-3-yl]-phenyl}-methanesulfonamide]
22 | 212 to 217 °C | CCNC(=O)Nc1ccc2ncc(-c3cccc(OCc4cc(OC)cc(OC)c4)c3)nc2n1 [Compound 121, 1-{3-[3-(3,5-Dimethoxy-benzyloxy)-phenyl]-pyrido[2,3-b]pyrazin-6-yl}-3-ethyl-urea]
23 | 244 to 247 °C | CCNC(=O)Nc1ccc2ncc(-c3ccc(Cl)cc3)nc2n1 [Compound 122, 1-[3-(4-Chloro-phenyl)-pyrido[2,3-b]pyrazin-6-yl]-3-ethyl-urea]

Row | melting point | SMILES
24 | 280 °C | CCNC(=O)Nc1ccc2ncc(-c3ccc(-c4ccccc4)cc3)nc2n1 [Compound 123, 1-(3-Biphenyl-4-yl-pyrido[2,3-b]pyrazin-6-yl)-3-ethyl-urea]
25 | 246 °C | CCNC(=S)Nc1ccc2ncc(-c3ccc(C)cc3)nc2n1 [Compound 124, 1-Ethyl-3-(3-p-tolyl-pyrido[2,3-b]pyrazin-6-yl)-thiourea]
26 | 244 °C | CCNC(=S)Nc1ccc2ncc(-c3cc(C)c(O)c(C)c3)nc2n1 [Compound 125, 1-Ethyl-3-[3-(4-hydroxy-3,5-dimethyl-phenyl)-pyrido[2,3-b]pyrazin-6-yl]-thiourea]
27 | 227 °C | CCNC(=S)Nc1ccc2ncc(-c3cccc(OC(C)C)c3)nc2n1 [Compound 127, 1-Ethyl-3-[3-(3-isopropoxy-phenyl)-pyrido[2,3-b]pyrazin-6-yl]-thiourea]
28 | 269 to 273 °C | CCNC(=O)Nc1ccc2ncc(-c3ccc(N(c4ccccc4)c4ccccc4)cc3)nc2n1 [Compound 128, 1-[3-(4-Diphenylamino-phenyl)-pyrido[2,3-b]pyrazin-6-yl]-3-ethyl-urea]
29 | 283 to 286 °C | CCNC(=O)Nc1ccc2ncc(-c3cccc(F)c3)nc2n1 [Compound 129, 1-Ethyl-3-[3-(3-fluoro-phenyl)-pyrido[2,3-b]pyrazin-6-yl]-urea]
30 | 220 to 223 °C | CCNC(=O)Nc1ccc2ncc(-c3cccc(OCC)c3)nc2n1 [Compound 130, 1-[3-(3-Ethoxy-phenyl)-pyrido[2,3-b]pyrazin-6-yl]-3-ethyl-urea]
31 | > 350 °C | CCNC(=O)Nc1ccc2ncc(-c3ccc([N+](=O)[O-])cc3)nc2n1 [Compound 131, 1-Ethyl-3-[3-(4-nitro-phenyl)-pyrido[2,3-b]pyrazin-6-yl]-urea]
32 | 260 °C | CCNC(=O)Nc1ccc2ncc(-c3ccc(C(=O)OC)cc3)nc2n1 [Compound 132, 4-[6-(3-Ethyl-ureido)-pyrido[2,3-b]pyrazin-3-yl]-benzoic acid methyl ester]
33 | 258.7 °C | CCCOc1ccc(-c2cnc3ccc(NC(=O)NCC)nc3n2)cc1 [Compound 133, 1-Ethyl-3-[3-(4-propoxy-phenyl)-pyrido[2,3-b]pyrazin-6-yl]-urea]
34 | 182 to 185 °C | CCNC(=O)Nc1ccc2ncc(-c3ccccc3SC)nc2n1 [Compound 135, 1-Ethyl-3-[3-(2-methylsulfanyl-phenyl)-pyrido[2,3-b]pyrazin-6-yl]-urea]
35 | 236 to 239 °C | CCNC(=O)Nc1ccc2ncc(-c3c(F)cccc3OC)nc2n1 [Compound 137]
36 | 250 °C | CCNC(=O)Nc1ccc2ncc(-c3ccsc3)nc2n1 [Compound 141, 1-Ethyl-3-(3-thiophen-3-yl-pyrido[2,3-b]pyrazin-6-yl)-urea]
37 | 247 to 249 °C | CCNC(=O)Nc1ccc2ncc(-c3ccc(C)c(C)c3)nc2n1 [Compound 142, 1-[3-(3,4-Dimethyl-phenyl)-pyrido[2,3-b]pyrazin-6-yl]-3-ethyl-urea]
38 | 250 to 252 °C | CCNC(=O)Nc1ccc2ncc(-c3ccc(C(=O)OC)c(F)c3)nc2n1 [Compound 143, 4-[6-(3-Ethyl-ureido)-pyrido[2,3-b]pyrazin-3-yl]-2-fluoro-benzoic acid methyl ester]
39 | 240 to 244 °C | CCNC(=O)Nc1ccc2ncc(-c3cccc(N(C)C)c3)nc2n1 [Compound 144, 1-[3-(3-Dimethylamino-phenyl)-pyrido[2,3-b]pyrazin-6-yl]-3-ethyl-urea]
40 | 207 to 209 °C | CCNC(=O)Nc1ccc2ncc(-c3cc(OC)ccc3OC)nc2n1 [Compound 145, 1-[3-(2,5-Dimethoxy-phenyl)-pyrido[2,3-b]pyrazin-6-yl]-3-ethyl-urea]
41 | 202 to 204 °C | CCNC(=O)Nc1ccc2ncc(-c3cccc(OCC)c3F)nc2n1 [Compound 146, 1-[3-(3-Ethoxy-2-fluoro-phenyl)-pyrido[2,3-b]pyrazin-6-yl]-3-ethyl-urea]
42 | 280 °C | CCNC(=S)Nc1ccc2ncc(Nc3ccccc3O)nc2n1 [Compound 149, 1-Ethyl-3-[3-(2-hydroxy-phenylamino)-pyrido[2,3-b]pyrazin-6-yl]-thiourea]
43 | 228 to 233 °C | CCNC(=O)Nc1ccc2ncc(-c3cc(C)c(C)c(C)c3)nc2n1 [Compound 151, 1-Ethyl-3-[3-(3,4,5-trimethyl-phenyl)-pyrido[2,3-b]pyrazin-6-yl]-urea]
44 | 225 °C | CCNC(=O)Nc1ccc2ncc(Nc3ccccc3OC)nc2n1 [Compound 153, 1-Ethyl-3-[3-(2-methoxy-phenylamino)-pyrido[2,3-b]pyrazin-6-yl]-urea]
45 | 238 °C | CCNC(=O)Nc1ccc2ncc(Nc3cccc(CO)c3)nc2n1 [Compound 154, 1-Ethyl-3-[3-(3-hydroxymethyl-phenylamino)-pyrido[2,3-b]pyrazin-6-yl]-urea]
46 | 230 °C | CCNC(=O)Nc1ccc2ncc(Nc3cccc(Oc4ccccc4)c3)nc2n1 [Compound 155, 1-Ethyl-3-[3-(3-phenoxy-phenylamino)-pyrido[2,3-b]pyrazin-6-yl]-urea]
